Source: patent US11053251B2, “GPR35 modulators” (Prometheus Biosciences, Inc., priority 2019, dated 2021)

How the values were obtained:
Human GPR35 [1] = molecular target: Human GPR35 (Homo sapiens, UniProt Q9HC97); test: Beta-Arrestin Assay (Tango U2OS cells, LiveBLAzer-FRET B/G); type: cell-based; details: Human GPR35 expressing Tango U2OS cells, 5 hours treatment
Experimental: Human GPR35 expressing Tango U2OS cells were plated in 384-well format in clear bottom plates at a cell density of 10,000 cells/well and allowed to grow overnight. The next day, cells were treated with serially diluted test compounds for 5 hours. LiveBLAzer-FRET B/G (CCF4-AM) detection reagents were then added and cells were allowed to incubate for 2 hours before reading plates on a BioTek Cytation 5 plate reader. Zaprinast was used as a positive control for dose-response curves. In order to determine EC50 values, data were fit to a four-parameter dose-response curve.

Human GPR35 [2] = molecular target: Human GPR35 (Homo sapiens, UniProt Q9HC97, S294R); test: Alternative Beta-Arrestin Assay (JumpIn 294R Tango U2OS cells, LiveBLAzer-FRET B/G); type: cell-based; details: for EC50: Human GPR35 expressing JumpIn 294R Tango U2OS cells, 5 hours treatment; for % inhibition at 50 μM: Table 2
Chain of Human GPR35 (Homo sapiens, UniProt Q9HC97, S294R) (Q9HC97 whole entry S294R): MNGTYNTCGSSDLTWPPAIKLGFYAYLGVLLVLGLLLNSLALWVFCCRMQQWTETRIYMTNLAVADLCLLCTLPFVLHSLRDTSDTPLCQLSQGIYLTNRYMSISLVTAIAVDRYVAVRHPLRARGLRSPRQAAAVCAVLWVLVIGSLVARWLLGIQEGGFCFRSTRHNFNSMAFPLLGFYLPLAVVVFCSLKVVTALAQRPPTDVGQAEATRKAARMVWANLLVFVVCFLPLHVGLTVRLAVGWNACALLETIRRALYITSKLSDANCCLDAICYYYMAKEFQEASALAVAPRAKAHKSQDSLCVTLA
Outline: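 Beta-arrestin recruitment measured as FRET ratio change using CCF4-AM loading for 2 h, following 5-hour compound treatment of GPR35 (S294R) JumpIn Tango U2OS cells. Zaprinast served as positive control; EC50 values from four-parameter dose-response fits.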

Chain of Human GPR35 (Homo sapiens, UniProt Q9HC97) (Q9HC97 whole entry): as the sequence (Q9HC97 whole entry S294R) above, with R294S counted along it

Structure (SMILES) | EC50 (Human GPR35 [1]) | EC50 (Human GPR35 [2]) | % inhibition at 50 μM (Human GPR35 [2])
CCOc1cc(-c2ccc(Cl)c(C(=O)O)c2)ccc1-c1nc2[nH]nnc2c(=O)[nH]1 [Compound 180, 4-chloro-3′-ethoxy-4′-(7-oxo-6,7-dihydro-3H-[1,2,3]triazolo[4,5-d]pyrimidin-5-yl)-[1,1′-biphenyl]-3-carboxylic acid] | ≤ 10 µM | ≤ 10 µM | –
CCOc1cc(-c2ccc(CC(=O)O)cc2)ccc1-c1nc2[nH]nnc2c(=O)[nH]1 [Compound 115, 2-(3′-Ethoxy-4′-(7-oxo-6,7-dihydro-3H-[1,2,3]triazolo[4,5-d]pyrimidin-5-yl)-[1,1′-biphenyl]-4-yl)acetic acid] | ≤ 10 µM | ≤ 10 µM | –
CCOc1cc(-c2cc[nH]n2)ccc1-c1nc2nn[nH]c2c(=O)[nH]1 [Compound 131, 5-(2-Ethoxy-4-(1H-pyrazol-3-yl)phenyl)-1,6-dihydro-7H-[1,2,3]triazolo[4,5-d]pyrimidin-7-one] | ≤ 10 µM | ≤ 10 µM | –
CCOc1cc(-c2cc(N)cc(C(=O)O)c2)ccc1-c1nc2[nH]nnc2c(=O)[nH]1 [Compound 123, 5-amino-3′-ethoxy-4′-(7-oxo-6,7-dihydro-3H-[1,2,3]triazolo[4,5-d]pyrimidin-5-yl)-[1,1′-biphenyl]-3-carboxylic acid] | ≤ 10 µM | ≤ 10 µM | –
CCOc1cc(-c2ccc(N)c(C(=O)O)c2)ccc1-c1nc2[nH]nnc2c(=O)[nH]1 [Compound 181, 4-amino-3′-ethoxy-4′-(7-oxo-6,7-dihydro-3H-[1,2,3]triazolo[4,5-d]pyrimidin-5-yl)-[1,1′-biphenyl]-3-carboxylic acid] | ≤ 10 µM | ≤ 10 µM | –
CCOc1cc(-c2c[nH]c(C(=O)O)c2)ccc1-c1nc2[nH]nnc2c(=O)[nH]1 [Compound 178, 4-(3-ethoxy-4-(7-oxo-6,7-dihydro-3H-[1,2,3]triazolo[4,5-d]pyrimidin-5-yl)phenyl)-1H-pyrrole-2-carboxylic acid] | ≤ 10 µM | ≤ 10 µM | –
CCOc1cc(Cc2ccccc2C(=O)O)ccc1-c1nc2[nH]nnc2c(=O)[nH]1 [Compound 175, 2-(3-ethoxy-4-(7-oxo-6,7-dihydro-3H-[1,2,3]triazolo[4,5-d]pyrimidin-5-yl)benzyl)benzoic acid] | ≤ 10 µM | ≤ 10 µM | –
CCOc1cc(-c2ccccc2CC(=O)OC)ccc1-c1nc2[nH]nnc2c(=O)[nH]1 [Compound 118, Methyl 2-(3′-ethoxy-4′-(7-oxo-6,7-dihydro-3H-[1,2,3]triazolo[4,5-d]pyrimidin-5-yl)-[1,1′-biphenyl]-2-yl)acetate] | ≤ 10 µM | ≤ 10 µM | –
CCOc1cc(-c2ncccn2)ccc1-c1nc2[nH]nnc2c(=O)[nH]1 [Compound 103, 5-(2-Ethoxy-4-(pyrimidin-2-yl)phenyl)-3,6-dihydro-7H-[1,2,3]triazolo[4,5-d]pyrimidin-7-one] | ≤ 10 µM | ≤ 10 µM | –
CCOc1cc(-c2cc(N)cc(C(=O)OC)c2)ccc1-c1nc2[nH]nnc2c(=O)[nH]1 [Compound 122, Methyl 5-amino-3′-ethoxy-4′-(7-oxo-6,7-dihydro-3H-[1,2,3]triazolo[4,5-d]pyrimidin-5-yl)-[1,1′-biphenyl]-3-carboxylate] | ≤ 10 µM | ≤ 10 µM | –
CCOc1cc(N2CCCC2=O)ccc1-c1nc2[nH]nnc2c(=O)[nH]1 [Compound 165, 5-(2-ethoxy-4-(2-oxopyrrolidin-1-yl)phenyl)-3,6-dihydro-7H-[1,2,3]triazolo[4,5-d]pyrimidin-7-one] | ≤ 10 µM | – | 66% inhibition at
CCOc1cc(N2CCC[C@@H]2C(=O)O)ccc1-c1nc2[nH]nnc2c(=O)[nH]1 [Compound 163, (3-ethoxy-4-(7-oxo-6,7-dihydro-3H-[1,2,3]triazolo[4,5-d]pyrimidin-5-yl)phenyl)-D-proline] | ≤ 10 µM | ≤ 10 µM | –
CCOc1cc(-c2ccc(C(=O)O)s2)ccc1-c1nc2[nH]nnc2c(=O)[nH]1 [Compound 117, 5-(3-Ethoxy-4-(7-oxo-6,7-dihydro-3H-[1,2,3]triazolo[4,5-d]pyrimidin-5-yl)phenyl)thiophene-2-carboxylic acid] | ≤ 10 µM | ≤ 10 µM | –
CCOc1cc(Cc2cccc(C(=O)O)c2)ccc1-c1nc2[nH]nnc2c(=O)[nH]1 [Compound 176, 3-(3-ethoxy-4-(7-oxo-6,7-dihydro-3H-[1,2,3]triazolo[4,5-d]pyrimidin-5-yl)benzyl)benzoic acid] | ≤ 10 µM | ≤ 10 µM | –
CCOc1cc(-c2ccc(C(=O)O)nc2)ccc1-c1nc2[nH]nnc2c(=O)[nH]1 [Compound 125, 5-(3-Ethoxy-4-(7-oxo-6,7-dihydro-3H-[1,2,3]triazolo[4,5-d]pyrimidin-5-yl)phenyl)picolinic acid] | ≤ 10 µM | ≤ 10 µM | –
CCOc1cc(-c2ccccc2CC(=O)O)ccc1-c1nc2[nH]nnc2c(=O)[nH]1 [Compound 119, 2-(3′-Ethoxy-4′-(7-oxo-6,7-dihydro-3H-[1,2,3]triazolo[4,5-d]pyrimidin-5-yl)-[1,1′-biphenyl]-2-yl)acetic acid] | ≤ 10 µM | ≤ 10 µM | –
CCOc1cc(-c2cnn(CC(=O)O)c2)ccc1-c1nc2[nH]nnc2c(=O)[nH]1 [Compound 127, 2-(4-(3-Ethoxy-4-(7-oxo-6,7-dihydro-3H-[1,2,3]triazolo[4,5-d]pyrimidin-5-yl)phenyl)-1H-pyrazol-1-yl)acetic acid] | ≤ 10 µM | ≤ 10 µM | –
CCOc1cc(-c2cncc(C(=O)O)c2)ccc1-c1nc2[nH]nnc2c(=O)[nH]1 [Compound 113, 5-(3-Ethoxy-4-(7-oxo-6,7-dihydro-3H-[1,2,3]triazolo[4,5-d]pyrimidin-5-yl)phenyl)nicotinic acid] | ≤ 10 µM | ≤ 10 µM | –
CCOc1cc(C(=O)N2CC[C@@H](C(=O)O)C2)ccc1-c1nc2[nH]nnc2c(=O)[nH]1 [Compound 161, (R)-1-(3-ethoxy-4-(7-oxo-6,7-dihydro-3H-[1,2,3]triazolo[4,5-d]pyrimidin-5-yl)benzoyl)pyrrolidine-3-carboxylic acid] | ≤ 10 µM | ≤ 10 µM | –
CCOc1cc(-c2cccc(C(N)=O)c2)ccc1-c1nc2[nH]nnc2c(=O)[nH]1 [Compound 156, 3′-ethoxy-4′-(7-oxo-6,7-dihydro-3H-[1,2,3]triazolo[4,5-d]pyrimidin-5-yl)-[1,1′-biphenyl]-3-carboxamide] | ≤ 10 µM | ≤ 10 µM | –
CCOc1cc(-c2cc(OCC(=O)OC)cc(C(=O)OC)c2)ccc1-c1nc2[nH]nnc2c(=O)[nH]1 [Compound 218, Methyl 3′-ethoxy-5-(2-methoxy-2-oxoethoxy)-4′-(7-oxo-6,7-dihydro-3H-[1,2,3]triazolo[4,5-d]pyrimidin-5-yl)-[1,1′-biphenyl]-3-carboxylate] | – | ≤ 10 µM | –
CCOc1cc(-c2cccc(C(C)(C)C(=O)O)c2)ccc1-c1nc2[nH]nnc2c(=O)[nH]1 [Compound 298, 2-(3′-ethoxy-4′-(7-oxo-6,7-dihydro-3H-[1,2,3]triazolo[4,5-d]pyrimidin-5-yl)-[1,1′-biphenyl]-3-yl)-2-methylpropanoic acid] | – | ≤ 10 µM | –
CCOc1cc(-c2ccc(OC(C)C)c(/C=C(\C)C(=O)O)c2)ccc1-c1nc2[nH]nnc2c(=O)[nH]1 [Compound 301, (E)-3-(3′-ethoxy-4-isopropoxy-4′-(7-oxo-6,7-dihydro-3H-[1,2,3]triazolo[4,5-d]pyrimidin-5-yl)-[1,1′-biphenyl]-3-yl)-2-methylacrylic acid] | – | ≤ 10 µM | –
O=C(O)c1ccc(-c2ccc(-c3nc4[nH]nnc4c(=O)[nH]3)c(OC3CCCC3)c2)nc1 [Compound 231, 6-(3-(Cyclopentyloxy)-4-(7-oxo-6,7-dihydro-3H-[1,2,3]triazolo[4,5-d]pyrimidin-5-yl)phenyl)nicotinic acid] | – | ≤ 10 µM | –
CCOc1cc(-c2cc(O)cc(O[C@@H](CC)C(=O)O)c2)ccc1-c1nc2[nH]nnc2c(=O)[nH]1 (single isomer, unassigned) [Compound 259] | – | ≤ 10 µM | –
CCOc1cc(-c2cccc(/C=C(/C)C(=O)O)c2)ccc1-c1nc2[nH]nnc2c(=O)[nH]1 (single isomer, unassigned) [Compound 236, (Z)-3-(3′-ethoxy-4′-(7-oxo-6,7-dihydro-3H-[1,2,3]triazolo[4,5-d]pyrimidin-5-yl)-[1,1′-biphenyl]-3-yl)-2-methylacrylic acid] | – | ≤ 10 µM | –
CCOC(=O)COc1cccc(-c2ccc(-c3nc4[nH]nnc4c(=O)[nH]3)c(OCC)c2)c1 [Compound 120, Ethyl 2-((3′-ethoxy-4′-(7-oxo-6,7-dihydro-3H-[1,2,3]triazolo[4,5-d]pyrimidin-5-yl)-[1,1′-biphenyl]-3-yl)oxy)acetate] | – | ≤ 10 µM | –
CCOC(=O)C1(Cc2cccc(-c3ccc(-c4nc5[nH]nnc5c(=O)[nH]4)c(OCC)c3)c2)CCC1 [Compound 245, ethyl 1-((3′-ethoxy-4′-(7-oxo-6,7-dihydro-3H-[1,2,3]triazolo[4,5-d]pyrimidin-5-yl)-[1,1′-biphenyl]-3-yl)methyl)cyclobutane-1-carboxylate] | – | – | 12% inhibition at
CCOc1cc(-c2cc(C)cc(O[C@H](C)C(=O)O)c2)ccc1-c1nc2[nH]nnc2c(=O)[nH]1 [Compound 266, (R)-2-((3′-ethoxy-5-methyl-4′-(7-oxo-6,7-dihydro-3H-[1,2,3]triazolo[4,5-d]pyrimidin-5-yl)-[1,1′-biphenyl]-3-yl)oxy)propanoic acid] | – | ≤ 10 µM | –
CCOc1cc(-c2nc(C(=O)O)co2)ccc1-c1nc2[nH]nnc2c(=O)[nH]1 [Compound 188, 2-(3-ethoxy-4-(7-oxo-6,7-dihydro-3H-[1,2,3]triazolo[4,5-d]pyrimidin-5-yl)phenyl)oxazole-4-carboxylic acid] | – | ≤ 10 µM | –
